Results taken from patent publication US20230382925A1, “MODULATORS OF CYSTIC FIBROSIS TRANSMEMBRANE CONDUCTANCE REGULATOR” (VERTEX PHARMACEUTICALS INCORPORATED, priority 2020, published 2023).
Read-outs that look alike come from different tables or passages of the source.

Molecular target: CFTR (Homo sapiens, UniProt P13569)
Assay: Membrane Potential Dye, Enteroid Assay B
Type: cell-based
Outline: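 Human intestinal enteroid cells exposed to compound 18-24 h at 37 °C, then loaded with methyl oxonol membrane-potential dye plus CaCC blockers. Chloride transport triggered in chloride-free buffer with 10 μM forskolin, 100 μM IBMX, 300 nM Compound III; fluorescence read 15 min, expressed as % of triple-corrector/potentiator combination control.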

[1] = Table 10, read-out: Ent. B EC50

Sequence of CFTR (P13569 with tags, fused parts or gaps DEL508-508): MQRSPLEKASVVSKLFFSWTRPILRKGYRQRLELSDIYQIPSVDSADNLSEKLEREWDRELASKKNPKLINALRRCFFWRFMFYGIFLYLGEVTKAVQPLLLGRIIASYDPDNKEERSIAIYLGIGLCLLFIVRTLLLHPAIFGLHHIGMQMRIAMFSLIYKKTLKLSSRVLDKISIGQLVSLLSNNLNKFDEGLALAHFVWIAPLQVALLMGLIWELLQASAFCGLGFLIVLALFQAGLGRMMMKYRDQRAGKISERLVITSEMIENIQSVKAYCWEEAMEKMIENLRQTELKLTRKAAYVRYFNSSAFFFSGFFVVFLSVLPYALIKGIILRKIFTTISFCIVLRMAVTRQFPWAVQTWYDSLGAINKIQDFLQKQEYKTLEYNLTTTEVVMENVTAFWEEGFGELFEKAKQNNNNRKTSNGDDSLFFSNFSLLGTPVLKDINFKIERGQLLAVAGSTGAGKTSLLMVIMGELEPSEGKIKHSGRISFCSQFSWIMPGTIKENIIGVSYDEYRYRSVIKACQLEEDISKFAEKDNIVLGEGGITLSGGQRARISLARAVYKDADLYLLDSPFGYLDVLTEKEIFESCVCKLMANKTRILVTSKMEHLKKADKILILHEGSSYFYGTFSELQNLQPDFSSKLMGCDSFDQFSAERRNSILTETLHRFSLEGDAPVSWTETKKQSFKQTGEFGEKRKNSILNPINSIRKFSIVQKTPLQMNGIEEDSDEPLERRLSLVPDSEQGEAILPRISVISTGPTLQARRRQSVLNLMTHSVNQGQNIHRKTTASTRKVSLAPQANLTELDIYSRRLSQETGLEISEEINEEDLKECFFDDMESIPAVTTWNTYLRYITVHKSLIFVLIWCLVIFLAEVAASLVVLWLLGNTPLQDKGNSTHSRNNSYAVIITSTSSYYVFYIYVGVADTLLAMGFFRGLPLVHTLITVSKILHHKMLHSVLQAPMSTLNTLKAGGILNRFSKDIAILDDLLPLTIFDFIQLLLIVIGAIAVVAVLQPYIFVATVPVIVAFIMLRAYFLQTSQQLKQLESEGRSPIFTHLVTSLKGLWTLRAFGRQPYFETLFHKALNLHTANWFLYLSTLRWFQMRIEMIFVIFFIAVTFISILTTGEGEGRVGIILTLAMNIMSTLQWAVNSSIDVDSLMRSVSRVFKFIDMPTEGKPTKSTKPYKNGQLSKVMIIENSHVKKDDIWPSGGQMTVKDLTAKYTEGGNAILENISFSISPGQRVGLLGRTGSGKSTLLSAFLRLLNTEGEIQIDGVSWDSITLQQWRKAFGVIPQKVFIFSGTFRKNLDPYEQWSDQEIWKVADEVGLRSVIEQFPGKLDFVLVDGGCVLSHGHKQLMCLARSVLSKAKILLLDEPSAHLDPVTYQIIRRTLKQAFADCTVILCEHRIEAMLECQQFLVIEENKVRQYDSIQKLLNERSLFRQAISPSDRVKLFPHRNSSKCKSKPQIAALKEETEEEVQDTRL

| SMILES | EC50 [1] [nM] | Ent. B Max Activity (%) (Table 10) | Ent. B Max Activity (%) (Table 9) | EC50 (Table 9, read-out: Ent. B EC50) [nM] |
| --- | --- | --- | --- | --- |
| [H][C@]1(N2C(=O)c3cccc(c3)S(=O)(=O)Nc3nc(cc(-c4c(C)cccc4C)n3)OC[C@H]2CC(C)C)C[C@@]2(C[C@H](NC(=O)CC)C2)C1 (stereo partly drawn) [Compound 250] | < 1000 | – | – | – |
| Cc1cccc(C)c1-c1cc2nc(n1)NS(=O)(=O)c1cccc(c1)C(=O)N(C1CC(N(C)C)C1)[C@H](CC(C)(C)C)CO2 (stereo partly drawn) [Compound 253] | < 1000 | ++ (++ is 30-60%) | – | – |
| Cc1cccc(C)c1-c1cc2nc(n1)NS(=O)(=O)c1cccc(c1)C(=O)N(C1CC(N(C)C)C1)[C@H](CC(C)(C)C)CO2 (stereo partly drawn) [Compound 254] | < 1000 | ++ (++ is 30-60%) | – | – |
| Cc1cccc(C)c1-c1cc2nc(n1)NS(=O)(=O)c1cccc(c1)C(=O)N(C1CC3(COC(=O)N3)C1)[C@H](CC(C)C)CO2 (stereo partly drawn) [Compound 255] | < 1000 | ++ (++ is 30-60%) | – | – |
| Cc1cccc(C)c1-c1cc2nc(n1)NS(=O)(=O)c1cccc(c1)C(=O)N(C1CC3(COC(=O)N3)C1)[C@H](CC(C)C)CO2 (stereo partly drawn) [Compound 256] | < 1000 | ++ (++ is 30-60%) | – | – |
| COCC(C)N1CCC2(CC1)CC(N1C(=O)c3cccc(c3)S(=O)(=O)Nc3nc(cc(-c4c(C)cccc4C)n3)OC[C@H]1CC(C)C)C2 (stereo partly drawn) [Compound 257] | – | – | +++ (+++ is >60%) | < 1000 |
| CCN1CCC2(CC1)CC(N1C(=O)c3cccc(c3)S(=O)(=O)Nc3nc(cc(-c4c(C)cccc4C)n3)OC[C@H]1CC(C)C)C2 [Compound 258] | – | – | +++ (+++ is >60%) | < 1000 |
| COC(=O)N1CCC2(CC1)CC(N1C(=O)c3cccc(c3)S(=O)(=O)Nc3nc(cc(-c4c(C)cccc4C)n3)OC[C@H]1CC1(C(F)(F)F)CC1)C2 [Compound 261] | – | – | +++ (+++ is >60%) | < 1000 |
| COC(=O)N1CCC2(CC1)CC(N1C(=O)c3cccc(c3)S(=O)(=O)Nc3nc(cc(-c4c(C)cccc4C)n3)OC[C@H]1CC(C)(C)C)C2 [Compound 262] | – | – | +++ (+++ is >60%) | < 1000 |
| COC(=O)NCC1CC(N2C(=O)c3cccc(c3)S(=O)(=O)Nc3nc(cc(-c4c(C)cccc4C)n3)OC[C@H]2CC(C)C)C1 (stereo partly drawn) [Compound 263] | – | – | +++ (+++ is >60%) | < 1000 |
| COCCN[C@H]1C[C@@]2(C1)C[C@H](N1C(=O)c3cccc(c3)S(=O)(=O)Nc3nc(cc(-c4c(C)cccc4C)n3)OC[C@H]1CC1(C(F)(F)F)CC1)C2 (stereo partly drawn) [Compound 269] | – | – | +++ (+++ is >60%) | < 1000 |
| Cc1cccc(C)c1-c1cc2nc(n1)NS(=O)(=O)c1cccc(c1)C(=O)N([C@H]1C[C@]3(C[C@H](N(C)C(=O)OC(C)C)C3)C1)[C@H](CC1(C(F)(F)F)CC1)CO2 (stereo partly drawn) [Compound 271] | – | – | +++ (+++ is >60%) | < 1000 |

Next, values leading:

| EC50 [1] [nM] | Ent. B Max Activity (%) (Table 10) | Ent. B Max Activity (%) (Table 9) | EC50 (Table 9, read-out: Ent. B EC50) [nM] | SMILES |
| --- | --- | --- | --- | --- |
| – | – | +++ (+++ is >60%) | < 1000 | Cc1cccc(C)c1-c1cc2nc(n1)NS(=O)(=O)c1cccc(c1)C(=O)N([C@H]1C[C@]3(C[C@H](NC(C)C)C3)C1)[C@H](CC1(C(F)(F)F)CC1)CO2 (stereo partly drawn) [Compound 265] |
| – | – | +++ (+++ is >60%) | < 1000 | Cc1cccc(C)c1-c1cc2nc(n1)NS(=O)(=O)c1cccc(c1)C(=O)N([C@H]1C[C@@]3(C[C@H](NC(C)C)C3)C1)[C@H](CC1(C(F)(F)F)CC1)CO2 (stereo partly drawn) [Compound 266] |
| – | – | +++ (+++ is >60%) | < 1000 | CN[C@H]1C[C@@]2(C1)C[C@H](N1C(=O)c3cccc(c3)S(=O)(=O)Nc3nc(cc(-c4c(C)cccc4C)n3)OC[C@H]1CC1(C(F)(F)F)CC1)C2 (stereo partly drawn) [Compound 267] |
| – | – | +++ (+++ is >60%) | < 1000 | CN[C@H]1C[C@]2(C1)C[C@H](N1C(=O)c3cccc(c3)S(=O)(=O)Nc3nc(cc(-c4c(C)cccc4C)n3)OC[C@H]1CC1(C(F)(F)F)CC1)C2 (stereo partly drawn) [Compound 268] |
| – | – | +++ (+++ is >60%) | < 1000 | COCCN[C@H]1C[C@]2(C1)C[C@H](N1C(=O)c3cccc(c3)S(=O)(=O)Nc3nc(cc(-c4c(C)cccc4C)n3)OC[C@H]1CC1(C(F)(F)F)CC1)C2 (stereo partly drawn) [Compound 270] |
